From PubChem BioAssay (NCI)
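Cells were grown in 96-well plates and exposed to each compound for 48 hours at five concentrations; endpoints were interpolated linearly between bracketing concentrations, or set to the highest concentration if not reached. TGI: concentration producing complete growth inhibition.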

Tests used:
Test in all cases: NCI tumour cell line growth inhibition, 48 h
XF 498 CNS = system: XF 498 CNS
SNB-19 CNS = system: SNB-19 CNS
CCRF-CEM leukemia = system: CCRF-CEM leukemia
DMS 114 small cell lung = system: DMS 114 small cell lung
A498 renal = system: A498 renal
HCC-2998 colon = system: HCC-2998 colon
SR leukemia = system: SR leukemia
MALME-3M melanoma = system: MALME-3M melanoma
OVCAR-5 ovarian = system: OVCAR-5 ovarian
K-562 leukemia = system: K-562 leukemia
ACHN renal = system: ACHN renal
SW-620 colon = system: SW-620 colon
786-0 renal = system: 786-0 renal
KM12 colon = system: KM12 colon
HOP-18 NSCLC = system: HOP-18 NSCLC
HCT-15 colon = system: HCT-15 colon
M19-MEL melanoma = system: M19-MEL melanoma
RXF 393 renal = system: RXF 393 renal
UACC-62 melanoma = system: UACC-62 melanoma
SK-MEL-28 melanoma = system: SK-MEL-28 melanoma
LXFL 529 NSCLC = system: LXFL 529 NSCLC
HT29 colon = system: HT29 colon
KM20L2 colon = system: KM20L2 colon
U251 CNS = system: U251 CNS
OVCAR-8 ovarian = system: OVCAR-8 ovarian
HL-60(TB) leukemia = system: HL-60(TB) leukemia
DLD-1 colon = system: DLD-1 colon
OVCAR-4 ovarian = system: OVCAR-4 ovarian
M14 melanoma = system: M14 melanoma
IGROV1 ovarian = system: IGROV1 ovarian
SF-268 CNS = system: SF-268 CNS
EKVX NSCLC = system: EKVX NSCLC
TK-10 renal = system: TK-10 renal
RPMI-8226 leukemia = system: RPMI-8226 leukemia
DMS 273 small cell lung = system: DMS 273 small cell lung
SF-539 CNS = system: SF-539 CNS
NCI-H23 lung = system: NCI-H23 lung
UACC-257 melanoma = system: UACC-257 melanoma
MOLT-4 leukemia = system: MOLT-4 leukemia
SNB-78 CNS = system: SNB-78 CNS
NCI-H226 lung = system: NCI-H226 lung
HOP-92 NSCLC = system: HOP-92 NSCLC
UO-31 renal = system: UO-31 renal
OVCAR-3 ovarian = system: OVCAR-3 ovarian
HCT-116 colon = system: HCT-116 colon
SF-295 CNS = system: SF-295 CNS
HOP-62 NSCLC = system: HOP-62 NSCLC
RXF-631 renal = system: RXF-631 renal
COLO 205 colon = system: COLO 205 colon
NCI-H460 lung = system: NCI-H460 lung
SK-OV-3 ovarian = system: SK-OV-3 ovarian
A549 NSCLC = system: A549 NSCLC
SK-MEL-5 melanoma = system: SK-MEL-5 melanoma
CAKI-1 renal = system: CAKI-1 renal
SNB-75 CNS = system: SNB-75 CNS
LOX IMVI melanoma = system: LOX IMVI melanoma
SN12C renal = system: SN12C renal

Measured: TGI

O=c1nc2occc2cn1C1CC(O)C(CO)O1 (configuration not stated)
> 100 µM: XF 498 CNS | SNB-19 CNS | CCRF-CEM leukemia | DMS 114 small cell lung | A498 renal | HCC-2998 colon | SR leukemia | MALME-3M melanoma | OVCAR-5 ovarian | K-562 leukemia | ACHN renal | SW-620 colon | 786-0 renal | KM12 colon | HOP-18 NSCLC | HCT-15 colon | M19-MEL melanoma | RXF 393 renal | UACC-62 melanoma | SK-MEL-28 melanoma | LXFL 529 NSCLC | HT29 colon | KM20L2 colon | U251 CNS | OVCAR-8 ovarian | HL-60(TB) leukemia | DLD-1 colon | OVCAR-4 ovarian | M14 melanoma | IGROV1 ovarian | SF-268 CNS | EKVX NSCLC | TK-10 renal | RPMI-8226 leukemia | DMS 273 small cell lung | SF-539 CNS | NCI-H23 lung | UACC-257 melanoma | MOLT-4 leukemia | SNB-78 CNS | NCI-H226 lung | HOP-92 NSCLC | UO-31 renal | OVCAR-3 ovarian | HCT-116 colon | SF-295 CNS | HOP-62 NSCLC | RXF-631 renal | COLO 205 colon | NCI-H460 lung | SK-OV-3 ovarian | A549 NSCLC | SK-MEL-5 melanoma | CAKI-1 renal | SNB-75 CNS | LOX IMVI melanoma | SN12C renal
